Where two headings read alike, the source gives them in different places.
Target: T1, CCR2 (Homo sapiens, UniProt P41597)
T1 construct: (leukophoresis pack); host or cells: human peripheral blood mononuclear cells (PBMCs) from a normal human leukophoresis pack
Experiment: hCCR2 (125-I hMCP-1) small molecule binding assay on human PBMCs
Conditions: 125I-MCP-1, human PBMCs
From the text: The CCR2 antagonist activity of compounds of the invention can be reported as the inhibitor concentration required for 50% inhibition (IC50 values) of specific binding in receptor binding assays using 125I-labeled MCP-1, as ligand, and Peripheral Blood Mononuclear Cells (PBMCs) prepared from normal human whole blood via density gradient centrifugation. Specific binding is defined as the total binding (e.g., total cpm on filters) minus the non-specific binding. Non-specific binding is defined as the amount of cpm still defected in the presence of excess unlabeled competitor (e.g., MCP-1),
Human PBMCs were used to test compounds of the invention in a binding assay. For example, 200,000 to 500,000 cells were incubated with 0.1 to 0.2 nM 125I-labeled MCP-1, with or without unlabeled competitor (10 nM MCP-1) or various concentrations of compounds to be tested. 125I-labeled MCP-1, were prepared by suitable methods or purchased from commercial vendors (Perkin Elmer, Boston Mass.). The binding reactions were performed in 50 to 250 μL of a binding buffer consisting of […] pH 7.2, and 0.1% BSA (bovine serum albumin), for 30 minutes at room temperature. The binding reactions were terminated by harvesting the membranes by rapid filtration through glass fiber filters (Perkin Elmer) which was presoaked in 0.3% polyethyleneimine or Phosphate Buffered Saline (PBS). The filters were rinsed with approximately 600 μL of binding buffer containing, 0.5 M NaCl or PBS, then dried, and the amount of bound radioactivity was determined by counting on a Gamma Counter (Perkin Elmer).
More specifically, the following assay may be employed to determine IC50 values for the compounds of the present invention.
hCCR2 (125-I hMCP-1) Small Molecule Binding Assay
Normal human leukophoresis pack contents, available from Biological Specialty Corporation, Colmar, Pa., is diluted 1:1 with PBS, divided into 50 ml conical tubes (preferably less than 40 mls per tube), and underlayed with 10 mls of Ficoll-Paque PLUS (GE Healthcare 17-1440-02). The tubes are centrifuged at 2800 rpm in a clinical centrifuge at room temperature for 30 mins, with no brake. The plasma layer is suctioned, and the buffycoat layer is collected. The collected buffycoat layer is washed twice with 50 mls PBS, and centrifuged at 1400 rpm with brake. The cells are counted. The cells are then diluted to 1×10^7 cells per ml in binding buffer.
96 well plates (such as, for example, Millipore MultiScreen96 plates) are pre-wet with about 100 μl binding buffer (RPMI+0.1% BSA+20 mM HEPES), and blotted just prior to compound addition.
5 μl of 50 μM test compounds in 100% DMSO are dotted onto U-bottom polypropylene 96-well plates.
245 μl per well of Binding Buffer is added to each well for 1 μM compound concentration in 2% DMSO.
50 μl of 1 μM compound is transferred to pre-wetted Millipore plates. 50 μl per well of 1×10E7 cells per ml of freshly prepared human PBMCs are added.
The samples are pre-incubated at room temperature for 30 minutes or 1 hour.
50 μl of 450 pM 125-I-hMCP-1 (Perkin-Elmer/NEN cat#NEX332025UC) is added for a final concentration 125-I-hMCP-1 of 150 pM per well.
The final test compound concentration is 0.333 uM in 150 μl total volume with 0.67% DMSO in all wells. Controls for this assay consist of 0% inhibition and 100% inhibition with 1 uM hMCP-1 (saturating conditions). All wells are run in duplicate. Controls may be in replicates of eight.
The samples are incubated at room temperature for 30 minutes.
The buffer is suctioned through the Millipore plates. The plates are washed three times with Wash Buffer (PRMI+0.1% BSA+20 mM HEPES+ 0.4 M NaC).
The plate underdrain is removed. The plate filters are allowed to dry. The filters are then punched out into plastic tubes.
Finally, the sample is counted an a Gamma Counter.
All IC50 plates were repeated for an n=2.
The following table summarizes the IC50 values identified through the described assay.

[1] = 30 min preincubation, read-out: IC50 (nM) 30 min preinc
[2] = 1 hr preincubation, read-out: IC50 (nM) 1 hr preinc

T1 sequence (P41597 whole entry): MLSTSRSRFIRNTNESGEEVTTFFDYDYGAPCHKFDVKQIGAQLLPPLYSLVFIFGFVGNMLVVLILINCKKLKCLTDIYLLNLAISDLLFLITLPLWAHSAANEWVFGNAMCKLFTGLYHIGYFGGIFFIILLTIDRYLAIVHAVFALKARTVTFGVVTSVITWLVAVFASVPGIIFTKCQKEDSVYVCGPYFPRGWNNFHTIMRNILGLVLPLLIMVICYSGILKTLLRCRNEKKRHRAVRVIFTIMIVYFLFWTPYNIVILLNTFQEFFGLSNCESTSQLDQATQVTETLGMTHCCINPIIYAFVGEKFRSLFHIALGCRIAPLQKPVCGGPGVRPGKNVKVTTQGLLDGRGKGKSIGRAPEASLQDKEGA

SMILES | IC50 [1] [nM] | IC50 [2] [nM]
CO[C@@H]1COCC[C@@H]1N[C@@H]1CC[C@@](C(=O)N2C[C@@H]3C[C@H]2CN3c2cc(C(F)(F)F)cnn2)(C(C)C)C1 [Example 18, 1,5-anhydro-2,3-dideoxy-3-{[(1R,3S)-3-isopropyl-3-({(1S,4S)-5-[5-(trifluoromethyl)pyridazin-3-yl]-2,5-diazabicyclo[2.2.1]hept-2-yl}carbonyl)cyclopentyl]amino}-4-O-methyl-D-erythro-pentitol] | 37.6 | 8.5
CO[C@@H]1COCC[C@@H]1N[C@@H]1CC[C@@](C(=O)N2C[C@@H]3C[C@H]2CN3c2cc(C(F)(F)F)nc(C(F)(F)F)c2)(C(C)C)C1 [Example 19, 1,5-anhydro-3-{[(1R,3S)-3-isopropyl-3-({(1S,4S)-5-[2,6-bis(trifluoromethyl)pyridin-4-yl]-2,5-diazabicyclo[2.2.1]hept-2-yl}carbonyl)-3-isopropylcyclopentyl]amino}-2,3-dideoxy-4-O-methyl-D-erythro-pentitol] | 20.4 | 6.35
CO[C@@H]1COCC[C@@H]1N[C@@H]1CC[C@@](C(=O)N2C[C@@H]3C[C@H]2CN3c2nccc(C(F)(F)F)c2F)(C(C)C)C1 [Example 20, 1,5-anhydro-2,3-dideoxy-3-{[(1R,3S)-3-({(1S,4S)-5-[3-fluoro-4-(trifluoromethyl)pyridin-2-yl]-2,5-diazabicyclo[2.2.1]hept-2-yl}carbonyl)-3-isopropylcyclopentyl]amino}-4-O-methyl-D-erythro-pentitol] | 8.59 | –
CO[C@@H]1COCC[C@@H]1N[C@@H]1CC[C@@](C(=O)N2C[C@@H]3C[C@H]2CN3c2cc(C(F)(F)F)cc(C)n2)(C(C)C)C1 [Example 21, 1,5-anhydro-2,3-dideoxy-3-{[(1R,3S)-3-isopropyl-3-({(1S,4S)-5-[6-methyl-4-(trifluoromethyl)pyridin-2-yl]-2,5-diazabicyclo[2.2.1]hept-2-yl}carbonyl)cyclopentyl]amino}-4-O-methyl-D-erythro-pentitol] | – | 3.1
CO[C@@H]1COCC[C@@H]1N[C@@H]1CC[C@@](C(=O)N2C[C@@H]3C[C@H]2CN3c2cccc(C(F)(F)F)c2)(C(C)C)C1 [Example 22, 1,5-anhydro-2,3-dideoxy-3-{[(1R,3S)-3-isopropyl-3-({(1S,4S)-5-[3-(trifluoromethyl)phenyl]-2,5-diazabicyclo[2.2.1]hept-2-yl}carbonyl)cyclopentyl]amino}-4-O-methyl-D-erythro-pentitol] | – | 1.1
CO[C@@H]1COCC[C@@H]1N[C@@H]1CC[C@@](C(=O)N2C[C@@H]3C[C@H]2CN3c2cc(F)cc(C(F)(F)F)c2)(C(C)C)C1 [Example 23, 1,5-anhydro-2,3-dideoxy-3-{[(1R,3S)-3-({(1S,4S)-5-[3-fluoro-5-(trifluoromethyl)phenyl]-2,5-diazabicyclo[2.2.1]hept-2-yl}carbonyl)-3-isopropylcyclopentyl]amino}-4-O-methyl-D-erythro-pentitol] | – | 0.94
CO[C@@H]1COCC[C@@H]1N[C@@H]1CC[C@](CC(F)F)(C(=O)N2C[C@@H]3C[C@H]2CN3c2cc(C(F)(F)F)ncn2)C1 [Example 24, 1,5-anhydro-2,3-dideoxy-3-{[(1R,3S)-3-(2,2-difluoroethyl)-3-({(1S,4S)-5-[6-(trifluoromethyl)pyrimidin-4-yl]-2,5-diazabicyclo[2.2.1]hept-2-yl}carbonyl)cyclopentyl]amino}-4-O-methyl-D-erythro-pentitol] | 79.7 | 8.87
CO[C@@H]1COCC[C@@H]1N[C@@H]1CC[C@](CC(F)F)(C(=O)N2C[C@@H]3C[C@H]2CN3c2cc(C(F)(F)F)ccn2)C1 [Example 25, 1,5-anhydro-2,3-dideoxy-3-{[(1R,3S)-3-(2,2-difluoroethyl)-3-({(1S,4S)-5-[4-(trifluoromethyl)pyridin-2-yl]-2,5-diazabicyclo[2.2.1]hept-2-yl}carbonyl)cyclopentyl]amino}-4-O-methyl-D-erythro-pentitol] | 6.58 | 0.93
CO[C@@H]1COCC[C@@H]1N[C@@H]1CC[C@](CC(F)F)(C(=O)N2C[C@@H]3C[C@H]2CN3c2ccnc(C(F)(F)F)c2)C1 [Example 26, 1,5-anhydro-2,3-dideoxy-3-{[(1R,3S)-3-(2,2-difluoroethyl)-3-({(1S,4S)-5-[2-(trifluoromethyl)pyridin-4-yl]-2,5-diazabicyclo[2.2.1]hept-2-yl}carbonyl)cyclopentyl]amino}-4-O-methyl-D-erythro-pentitol] | 29.3 | 7.85
CO[C@@H]1COCC[C@@H]1N[C@@H]1CC[C@](CC(F)F)(C(=O)N2C[C@@H]3C[C@H]2CN3c2nccc(C(F)(F)F)n2)C1 [Example 27, 1,5-anhydro-2,3-dideoxy-3-{[(1R,3S)-3-(2,2-difluoroethyl)-3-({(1S,4S)-5-[4-(trifluoromethyl)pyrimidin-2-yl]-2,5-diazabicyclo[2.2.1]hept-2-yl}carbonyl)cyclopentyl]amino}-4-O-methyl-D-erythro-pentitol] | 16.2 | 2.04
CO[C@@H]1COCC[C@@H]1N[C@@H]1CC[C@](CC(F)F)(C(=O)N2C[C@@H]3C[C@H]2CN3c2cccc(C(F)(F)F)n2)C1 [Example 28, 1,5-anhydro-2,3-dideoxy-3-{[(1R,3S)-3-(2,2-difluoroethyl)-3-({(1S,4S)-5-[6-(trifluoromethyl)pyridin-2-yl]-2,5-diazabicyclo[2.2.1]hept-2-yl}carbonyl)cyclopentyl]amino}-4-O-methyl-D-erythro-pentitol] | – | 1.88
CO[C@@H]1COCC[C@@H]1N[C@@H]1CC[C@](CC(F)F)(C(=O)N2C[C@@H]3C[C@H]2CN3c2cncc(C(F)(F)F)n2)C1 [Example 29, 1,5-anhydro-2,3-dideoxy-3-{[(1R,3S)-3-(2,2-difluoroethyl)-3-({(1S,4S)-5-[6-(trifluoromethyl)pyrazin-2-yl]-2,5-diazabicyclo[2.2.1]hept-2-yl}carbonyl)cyclopentyl]amino}-4-O-methyl-D-erythro-pentitol] | – | 2.75
CO[C@@H]1COCC[C@@H]1N[C@@H]1CC[C@](CC(F)F)(C(=O)N2C[C@@H]3C[C@H]2CN3c2ccnc(C(F)(F)F)n2)C1 [Example 30, 1,5-anhydro-2,3-dideoxy-3-{[(1R,3S)-3-(2,2-difluoroethyl)-3-({(1S,4S)-5-[2-(trifluoromethyl)pyrimidin-4-yl]-2,5-diazabicyclo[2.2.1]hept-2-yl}carbonyl)cyclopentyl]amino}-4-O-methyl-D-erythro-pentitol] | 32.9 | 11.8
CO[C@@H]1COCC[C@@H]1N[C@@H]1CC[C@](CC(F)F)(C(=O)N2C[C@@H]3C[C@H]2CN3c2cc(C(F)(F)F)cnn2)C1 [Example 31, 1,5-anhydro-2,3-dideoxy-3-{[(1R,3S)-3-(2,2-difluoroethyl)-3-({(1S,4S)-5-[5-(trifluoromethyl)pyridazin-3-yl]-2,5-diazabicyclo[2.2.1]hept-2-yl}carbonyl)cyclopentyl]amino}-4-O-methyl-D-erythro-pentitol] | – | 6.35
CO[C@@H]1COCC[C@@H]1N[C@@H]1CC[C@](CC(F)(F)F)(C(=O)N2C[C@@H]3C[C@H]2CN3c2cc(C(F)(F)F)ncn2)C1 [Example 32, 1,5-anhydro-2,3-dideoxy-4-O-methyl-3-{[(1R,3S)-3-(2,2,2-trifluoroethyl)-3-({(1S,4S)-5-[6-(trifluoromethyl)pyrimidin-4-yl]-2,5-diazabicyclo[2.2.1]hept-2-yl}carbonyl)cyclopentyl]amino}-D-erythro-pentitol] | 13.8 | 11.7
